Laboratory results published in article PMC10385989, “Evaluation of the Ability of PAMPA Membranes to Emulate Biological Processes through the Abraham Solvation Parameter Model” (Membranes, 2023).

Key:
[1] = pH 7.4
Method: First, the top part of the skin-PAMPA (PAMPA-Certramide) sandwich, which contains the membrane, was hydrated overnight with the hydration solution. Different buffer solutions at pH 3, 4, 5, 6, 7, and 7.4 were prepared to solve the samples. To prepare them, 25 mL of concentrated PRISMA HTTM was diluted to 1 L with water, and 0.5 M NaOH was added to obtain the desired pH. Above pH 8, the skin-PAMPA membrane becomes degraded [40], so pH 7.4 was the highest pH used in the present work. In order to measure the intrinsic permeability, each sample was dissolved in the buffer solution with a pH that ensured the presence of the neutral form. […] In all instances, the pH of the acceptor compartment was 7.4.
A total of 180 µL of sample solution was placed in the donor compartment, and 200 µL of pH 7.4 buffer was placed in the acceptor compartment.
According to previous studies, in which the conditions in the skin-PAMPA measurements were optimized [40], the skin-PAMPA sandwich was incubated at 32 °C for 4 h. Afterwards, the concentration of the compounds was measured in both the donor and the acceptor plates. Additionally, the initial sample solution was quantified. […] The injection volume was 5 μL, and 3 to 5 replicate measurements were performed per compound. Every well-plate contained only one compound.
When the pH is different on the two sides of the membrane, a gradient-pH is created and the permeation of ionizable molecules can be altered. This gradient-pH implies two different permeability coefficients, one on each direction of the membrane, denoted by the subscript (D→A) or (A→D). Equation (5) has two unknowns, Pe(A→D) and Pe(D→A), so an iterative method has to be used to solve it. To this purpose, two different experiments were carried out for each compound, one with a gradient-pH and the other with an iso-pH, that is, the same pH in both compartments (7.4). For the iso-pH, Pe(A→D) = Pe(D→A).
Finally, Equation (5) was iteratively solved for Pe(D→A). Initially, ra was assumed to be rv, but the ra value was improved after each iteration by using the newly obtained Pe(D→A). The process continued until self-consistency was reached within the precision required (0.001). The Solver tool in Microsoft Excel was used for the iterative process.
In the donor compartment, a pH was used in which the compound was in its neutral form, whereas in the acceptor compartment, the buffer was at pH 7.4.

[2] = cited from earlier work

Compound | log P0 (intrinsic permeability, PAMPA-Certramide) [1] | log P0 (permeability, PAMPA-IPM) [2]
COC(=O)Cc1ccc(O)cc1 [4-hydroxymethyl phenylacetate] | -5.07 | –
Nc1ccccc1 [aniline] | -4.55 | –
CC(=O)[C@@]1(O)CC[C@H]2[C@@H]3CCC4=CC(=O)CC[C@]4(C)[C@H]3CC[C@@]21C [hydroxiprogesterone] | -4.70 | –
CC(=O)CC(c1ccccc1)c1c(O)c2ccccc2oc1=O (stereo not drawn) [warfarin] | -4.63 | –
CCC1(CC)C(=O)NC(=O)NC1=O [5,5-diethylbarbituric acid (barbital), 5,5-diethylbarbituric acid] | -5.75 | –
C[C@]12CCC(=O)C=C1CC[C@@H]1[C@@H]2CC[C@@]2(C)[C@H]1CC[C@]2(O)C(=O)CO [corteloxone] | -5.45 | –
CCC1(c2ccccc2)C(=O)NC(=O)NC1=O [5-ethyl-5-phenylbarbituric acid] | -6.05 | -5.15
Oc1ccccc1 [phenol] | – | -4.14
CN1CCC[C@H]1c1cccnc1 [nicotine] | – | -4.58
CCNc1nc(Cl)nc(NC(C)C)n1 [atrazine] | -4.67 | –
COc1ccccc1 [methyl phenyl ether] | -4.34 | –
